Measurements reported in US7135572B2 (CJ Corp, priority 2001, dated 2006).

Assays:
cyclooxygenase-1 = target: T1, cyclooxygenase-1 (Homo sapiens, UniProt P23219); experiment: Inhibition of cyclooxygenase-1 in U-937 cells (PGE2 quantitation); assay type: cell-based; details: U-937 cells
T1 construct: The cultured U-937 (humane lymphoma cell, obtained from Korean cell line bank) was centrifuged to collect the pellet; endogenous in cells; host or cells: U-937 (human lymphoma cell line, Korean cell line bank)
T1 sequence (P23219 24-599): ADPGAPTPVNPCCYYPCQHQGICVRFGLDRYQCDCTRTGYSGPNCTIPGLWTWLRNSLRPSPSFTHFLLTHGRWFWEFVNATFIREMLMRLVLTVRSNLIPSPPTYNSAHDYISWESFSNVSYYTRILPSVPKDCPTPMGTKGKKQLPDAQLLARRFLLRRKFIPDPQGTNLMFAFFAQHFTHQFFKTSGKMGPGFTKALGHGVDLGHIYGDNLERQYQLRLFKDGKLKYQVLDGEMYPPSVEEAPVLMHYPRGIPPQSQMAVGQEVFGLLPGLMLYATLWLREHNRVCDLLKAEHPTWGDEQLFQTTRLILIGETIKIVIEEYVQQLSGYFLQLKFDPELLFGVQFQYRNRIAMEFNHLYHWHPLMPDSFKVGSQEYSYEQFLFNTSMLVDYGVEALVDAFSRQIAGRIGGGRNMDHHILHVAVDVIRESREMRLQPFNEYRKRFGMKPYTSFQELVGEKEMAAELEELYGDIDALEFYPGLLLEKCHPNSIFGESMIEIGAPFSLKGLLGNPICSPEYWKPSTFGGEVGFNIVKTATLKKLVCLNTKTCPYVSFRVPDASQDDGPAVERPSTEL
Experimental: (§1) In order to investigate pharmacologically the selective inhibition activity against cyclooxygenase-2 enzyme, the inhibitive effects against cyclooxygenase-1 and cyclooxygenase-2 were measured by two methods as follows.
Then, the pellet was diluted with 1×HBSS(Hank's balanced salt solutin) at the concentration of 1×10^6 cells/ml, and 1 ml of them was transferred into each well of 12-well plates, and then dissolved with DMSO. 5μl of the diluted sample solution, and 5μl of DMSO vehicle were added therein and mixed, and the mixture was cultured at 37° C. in Co2 incubator for 15 minutes. Arachidonic acid as a substrate was dissolved in ethanol to prepare a stock solution with a concentration of 10 mM, followed by diluting with 1×HBSS to prepare the solution of 1 mM. 10 μl of 1 mM Arachidonic acid solution was added to each of the treated wells, and the mixture was cultured at 37° C. in CO2 incubator for 30 minutes. The cell solution of each well was collected in the centrifuge tube and was centrifuged at 4° C. for 5 minutes at 10,000 rpm. As PGE2 existed in the supernatant separated from collected cell, the concentration of PGE2 was quantitated by using monoclonal kit from Cayman Chemicals, and the concentration of samples and vehicle were compared to estimate the inhibition ratio (%) of each compound against cyclooxygenase-1. Ultimately, the inhibition effect against the cyclooxygenase-1 enzyme was obtained from the result.

cyclooxygenase-2 = target: T2, cyclooxygenase-2 (Mus musculus, UniProt Q05769); experiment: Inhibition of cyclooxygenase-2 in Raw 264.7 cells treated with interferon γ and LPS (PGE2 EIA); assay type: cell-based; details: for Inhibitory effects of cyclooxygenase (COX): COX-2: Raw 264.7 cells; for selectivity of cyclooxygenase-2 compared with the comparative substance (in words): COX-2 versus COX-1
T2 construct: endogenous in cells; host or cells: Raw 264.7 (Korean cell line bank), aspirin-pretreated, induced with interferon gamma and LPS
T2 sequence (Q05769 18-604): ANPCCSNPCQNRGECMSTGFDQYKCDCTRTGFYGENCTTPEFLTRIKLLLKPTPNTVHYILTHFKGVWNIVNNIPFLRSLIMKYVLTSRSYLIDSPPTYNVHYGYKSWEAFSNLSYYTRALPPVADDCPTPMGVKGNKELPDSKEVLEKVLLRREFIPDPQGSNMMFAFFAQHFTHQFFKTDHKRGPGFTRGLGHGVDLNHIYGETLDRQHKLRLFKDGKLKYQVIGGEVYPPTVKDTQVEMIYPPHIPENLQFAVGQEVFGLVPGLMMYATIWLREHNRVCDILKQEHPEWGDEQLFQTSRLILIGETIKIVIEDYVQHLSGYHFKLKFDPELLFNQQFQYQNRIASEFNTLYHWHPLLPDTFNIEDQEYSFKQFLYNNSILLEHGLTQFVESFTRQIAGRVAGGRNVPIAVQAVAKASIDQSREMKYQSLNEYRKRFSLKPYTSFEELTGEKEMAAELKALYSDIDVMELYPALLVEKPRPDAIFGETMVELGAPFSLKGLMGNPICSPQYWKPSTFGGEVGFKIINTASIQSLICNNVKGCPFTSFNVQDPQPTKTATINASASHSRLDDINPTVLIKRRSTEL
Experimental: as §1
And then, each samples were replaced with new media and cultured for 30 minutes. In addition, the samples was treated with 100 units/ml of interferon Υ and 100 ng/ml of lipopolysaccharide(LPS), and cultured for 18 hours. Then, the media was transferred to other tubes and the PGE 2 was quantitated by using EIA kit from Cayman Chemicals.

Cc1nc(-c2cccc(Cl)c2)n(-c2ccc(S(N)(=O)=O)cn2)n1 [Example 21, 6-[5-(3-chloro-phenyl)-3-methyl-[1,2,4]triazole-1-yl]-pyridine-3-sulfonic acid amide]
Inhibitory effects of cyclooxygenase (COX): COX-1 (cyclooxygenase-1; 3 μM): 44.7 % inhibition | Inhibitory effects of cyclooxygenase (COX): COX-1 (cyclooxygenase-1; 10 μM): 56.7 % inhibition | Inhibitory effects of cyclooxygenase (COX): COX-1 (cyclooxygenase-1; 30 μM): 75.6 % inhibition | Inhibitory effects of cyclooxygenase (COX): COX-2 (cyclooxygenase-2; 30 nM): 43.9 % inhibition | Inhibitory effects of cyclooxygenase (COX): COX-2 (cyclooxygenase-2; 100 nM): 48.8 % inhibition | Inhibitory effects of cyclooxygenase (COX): COX-2 (cyclooxygenase-2; 300 nM): 67.8 % inhibition

COc1ccc(-c2nc(C)nn2-c2ccc(S(N)(=O)=O)cn2)cc1 [Example 19, 6-[5-(4-methoxy-phenyl)-3-mehtyl-[1,2,4]triazole-1-yl]-pyridine-3-sulfonic acid amide]
Inhibitory effects of cyclooxygenase (COX): COX-1 (cyclooxygenase-1; 3 μM): 46.9 % inhibition | Inhibitory effects of cyclooxygenase (COX): COX-1 (cyclooxygenase-1; 10 μM): 61.0 % inhibition | Inhibitory effects of cyclooxygenase (COX): COX-1 (cyclooxygenase-1; 30 μM): 77.6 % inhibition | Inhibitory effects of cyclooxygenase (COX): COX-2 (cyclooxygenase-2; 30 nM): 34.8 % inhibition | Inhibitory effects of cyclooxygenase (COX): COX-2 (cyclooxygenase-2; 100 nM): 43.1 % inhibition | Inhibitory effects of cyclooxygenase (COX): COX-2 (cyclooxygenase-2; 300 nM): 69.5 % inhibition

Cc1ccc(-c2nc(C)nn2-c2ccc(S(N)(=O)=O)cn2)cc1 [Example 18, 6-(3-methyl-5-p-toly-[1,2,4]triazole-1-yl)-pyridine-3-sulfonic acid amide]
Inhibitory effects of cyclooxygenase (COX): COX-1 (cyclooxygenase-1; 3 μM): 50.4 % inhibition | Inhibitory effects of cyclooxygenase (COX): COX-1 (cyclooxygenase-1; 10 μM): 62.9 % inhibition | Inhibitory effects of cyclooxygenase (COX): COX-1 (cyclooxygenase-1; 30 μM): 75.1 % inhibition | Inhibitory effects of cyclooxygenase (COX): COX-2 (cyclooxygenase-2; 30 nM): 26.4 % inhibition | Inhibitory effects of cyclooxygenase (COX): COX-2 (cyclooxygenase-2; 100 nM): 37.5 % inhibition | Inhibitory effects of cyclooxygenase (COX): COX-2 (cyclooxygenase-2; 300 nM): 46.5 % inhibition

COc1cccc(-c2nc(C)nn2-c2ccc(S(N)(=O)=O)cc2)c1 [Example 10, 4-[5-(3-methoxy-phenyl)-3-methyl-[1,2,4]triazole-1-yl]-benzenesulfonamide]
Inhibitory effects of cyclooxygenase (COX): COX-1 (cyclooxygenase-1; 3 μM): 38.8 % inhibition | Inhibitory effects of cyclooxygenase (COX): COX-1 (cyclooxygenase-1; 10 μM): 42.0 % inhibition | Inhibitory effects of cyclooxygenase (COX): COX-1 (cyclooxygenase-1; 30 μM): 45.6 % inhibition | Inhibitory effects of cyclooxygenase (COX): COX-2 (cyclooxygenase-2; 30 nM): 42.1 % inhibition | Inhibitory effects of cyclooxygenase (COX): COX-2 (cyclooxygenase-2; 100 nM): 54.2 % inhibition | Inhibitory effects of cyclooxygenase (COX): COX-2 (cyclooxygenase-2; 300 nM): 68.8 % inhibition

COc1ccc(-c2nc(C)nn2-c2ccc(S(N)(=O)=O)cc2)cc1 [Example 6, 4-[5-(4-methoxy-phenyl)-3-mehtyl-[1,2,4]triazole-1-yl]-benzenesulfonamide]
Inhibitory effects of cyclooxygenase (COX): COX-1 (cyclooxygenase-1; 3 μM): 78.6 % inhibition | Inhibitory effects of cyclooxygenase (COX): COX-1 (cyclooxygenase-1; 10 μM): 85.6 % inhibition | Inhibitory effects of cyclooxygenase (COX): COX-1 (cyclooxygenase-1; 30 μM): 94.5 % inhibition | Inhibitory effects of cyclooxygenase (COX): COX-2 (cyclooxygenase-2; 30 nM): 68.8 % inhibition | Inhibitory effects of cyclooxygenase (COX): COX-2 (cyclooxygenase-2; 100 nM): 99.2 % inhibition | Inhibitory effects of cyclooxygenase (COX): COX-2 (cyclooxygenase-2; 300 nM): 99.9 % inhibition | selectivity of cyclooxygenase-2 compared with the comparative substance (in words) (cyclooxygenase-2): hardly different

COc1ccc(-c2nc(C)nn2-c2ccc(S(N)(=O)=O)cc2)cc1OC [Example 12, 4-[5-(3,4-dimethoxy-phenyl)-3-mehtyl-[1,2,4]triazole-1-yl]-benzenesulfonamide]
Inhibitory effects of cyclooxygenase (COX): COX-1 (cyclooxygenase-1; 3 μM): 27.3 % inhibition | Inhibitory effects of cyclooxygenase (COX): COX-1 (cyclooxygenase-1; 10 μM): 34.3 % inhibition | Inhibitory effects of cyclooxygenase (COX): COX-1 (cyclooxygenase-1; 30 μM): 37.7 % inhibition | Inhibitory effects of cyclooxygenase (COX): COX-2 (cyclooxygenase-2; 30 nM): 30.3 % inhibition | Inhibitory effects of cyclooxygenase (COX): COX-2 (cyclooxygenase-2; 100 nM): 55.8 % inhibition | Inhibitory effects of cyclooxygenase (COX): COX-2 (cyclooxygenase-2; 300 nM): 70.4 % inhibition

COc1cc(OC)cc(-c2nc(C)nn2-c2ccc(S(N)(=O)=O)cn2)c1 [Example 22, 6-[5-(3,5-dimethoxy-phenyl)-3-methyl-[1,2,4]triazole-1-yl]-pyridine-3-sulfonic acid amide]
Inhibitory effects of cyclooxygenase (COX): COX-1 (cyclooxygenase-1; 3 μM): 15.1 % inhibition | Inhibitory effects of cyclooxygenase (COX): COX-1 (cyclooxygenase-1; 10 μM): 26.8 % inhibition | Inhibitory effects of cyclooxygenase (COX): COX-1 (cyclooxygenase-1; 30 μM): 31.1 % inhibition | Inhibitory effects of cyclooxygenase (COX): COX-2 (cyclooxygenase-2; 30 nM): 27.3 % inhibition | Inhibitory effects of cyclooxygenase (COX): COX-2 (cyclooxygenase-2; 100 nM): 29.8 % inhibition | Inhibitory effects of cyclooxygenase (COX): COX-2 (cyclooxygenase-2; 300 nM): 36.2 % inhibition

Cc1nc(-c2cccc(Cl)c2)n(-c2ccc(S(N)(=O)=O)cc2)n1 [Example 8, 4-[5-(3-chloro-phenyl)-3-methyl-[1,2,4]triazole-1-yl]-benzenesulfonamide]
Inhibitory effects of cyclooxygenase (COX): COX-1 (cyclooxygenase-1; 3 μM): 62.0 % inhibition | Inhibitory effects of cyclooxygenase (COX): COX-1 (cyclooxygenase-1; 10 μM): 75.1 % inhibition | Inhibitory effects of cyclooxygenase (COX): COX-1 (cyclooxygenase-1; 30 μM): 84.7 % inhibition | Inhibitory effects of cyclooxygenase (COX): COX-2 (cyclooxygenase-2; 30 nM): 31.3 % inhibition | Inhibitory effects of cyclooxygenase (COX): COX-2 (cyclooxygenase-2; 100 nM): 52.6 % inhibition | Inhibitory effects of cyclooxygenase (COX): COX-2 (cyclooxygenase-2; 300 nM): 50.5 % inhibition

Cc1nc(-c2ccc(Br)cc2)n(-c2ccc(S(N)(=O)=O)cn2)n1 [Example 17, 6-[5-(4-bromo-phenyl)-3-methyl-[1,2,4]triazole-1-yl]-pyridine-3-sulfonic acid amide]
Inhibitory effects of cyclooxygenase (COX): COX-1 (cyclooxygenase-1; 3 μM): 5.6 % inhibition | Inhibitory effects of cyclooxygenase (COX): COX-1 (cyclooxygenase-1; 10 μM): 28.7 % inhibition | Inhibitory effects of cyclooxygenase (COX): COX-1 (cyclooxygenase-1; 30 μM): 32.7 % inhibition | Inhibitory effects of cyclooxygenase (COX): COX-2 (cyclooxygenase-2; 30 nM): 47.8 % inhibition | Inhibitory effects of cyclooxygenase (COX): COX-2 (cyclooxygenase-2; 100 nM): 66.9 % inhibition | Inhibitory effects of cyclooxygenase (COX): COX-2 (cyclooxygenase-2; 300 nM): 78.2 % inhibition

Cc1nc(-c2ccc(Br)cc2)n(-c2ccc(S(C)(=O)=O)cn2)n1 [Example 31, 2-[5-(4-bromo-phenyl)-3-methyl-[1,2,4]triazole-1-yl]-5-methanesulfonyl-pyridine]
Inhibitory effects of cyclooxygenase (COX): COX-1 (cyclooxygenase-1; 3 μM): 81.4 % inhibition | Inhibitory effects of cyclooxygenase (COX): COX-1 (cyclooxygenase-1; 10 μM): 82.0 % inhibition | Inhibitory effects of cyclooxygenase (COX): COX-1 (cyclooxygenase-1; 30 μM): 88.1 % inhibition | Inhibitory effects of cyclooxygenase (COX): COX-2 (cyclooxygenase-2; 30 nM): 69.5 % inhibition | Inhibitory effects of cyclooxygenase (COX): COX-2 (cyclooxygenase-2; 100 nM): 99.8 % inhibition | Inhibitory effects of cyclooxygenase (COX): COX-2 (cyclooxygenase-2; 300 nM): 99.9 % inhibition | selectivity of cyclooxygenase-2 compared with the comparative substance (in words) (cyclooxygenase-2): hardly different

Cc1nc(-c2ccc(F)cc2)n(-c2ccc(S(C)(=O)=O)cc2)n1 [Example 26, 5-(4-fluoro-phenyl)-1-(4-methanesulfonyl-phenyl)-3-methyl-1H-[1,2,4]triazole]
Inhibitory effects of cyclooxygenase (COX): COX-1 (cyclooxygenase-1; 3 μM): 42.0 % inhibition | Inhibitory effects of cyclooxygenase (COX): COX-1 (cyclooxygenase-1; 10 μM): 51.2 % inhibition | Inhibitory effects of cyclooxygenase (COX): COX-1 (cyclooxygenase-1; 30 μM): 55.1 % inhibition | Inhibitory effects of cyclooxygenase (COX): COX-2 (cyclooxygenase-2; 30 nM): 20.1 % inhibition | Inhibitory effects of cyclooxygenase (COX): COX-2 (cyclooxygenase-2; 100 nM): 47.7 % inhibition | Inhibitory effects of cyclooxygenase (COX): COX-2 (cyclooxygenase-2; 300 nM): 64.0 % inhibition

COc1cc(OC)cc(-c2nc(C)nn2-c2ccc(S(N)(=O)=O)cc2)c1 [Example 13, 4-[5-(3,5-dimethoxy-phenyl)-3-methyl-[1,2,4]triazole-1-yl]-benzenesulfonamide]
Inhibitory effects of cyclooxygenase (COX): COX-1 (cyclooxygenase-1; 3 μM): 63.8 % inhibition | Inhibitory effects of cyclooxygenase (COX): COX-1 (cyclooxygenase-1; 10 μM): 65.9 % inhibition | Inhibitory effects of cyclooxygenase (COX): COX-1 (cyclooxygenase-1; 30 μM): 76.8 % inhibition | Inhibitory effects of cyclooxygenase (COX): COX-2 (cyclooxygenase-2; 30 nM): 37.9 % inhibition | Inhibitory effects of cyclooxygenase (COX): COX-2 (cyclooxygenase-2; 100 nM): 56.1 % inhibition | Inhibitory effects of cyclooxygenase (COX): COX-2 (cyclooxygenase-2; 300 nM): 59.3 % inhibition
